From PubChem BioAssay (NCI)
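Test compounds were applied to cells in 96-well plates for 48 hours at 5 doses. At the TGI there is no net growth.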

Legend:
Assay in all cases: growth of human tumour cells (NCI), 48 h
DU-145 prostate = tested on: DU-145 prostate
HS 578T breast = tested on: HS 578T breast
K-562 leukemia = tested on: K-562 leukemia
MDA-MB-231 breast = tested on: MDA-MB-231 breast
MOLT-4 leukemia = tested on: MOLT-4 leukemia
NCI-H23 lung = tested on: NCI-H23 lung
NCI-H460 lung = tested on: NCI-H460 lung
OVCAR-3 ovarian = tested on: OVCAR-3 ovarian
RXF 393 renal = tested on: RXF 393 renal
SF-295 CNS = tested on: SF-295 CNS
SK-OV-3 ovarian = tested on: SK-OV-3 ovarian
UACC-257 melanoma = tested on: UACC-257 melanoma

Row | Compound | TGI (DU-145 prostate) [µM] | TGI (HS 578T breast) [µM] | TGI (K-562 leukemia) [µM] | TGI (MDA-MB-231 breast) [µM] | TGI (MOLT-4 leukemia) [µM] | TGI (NCI-H23 lung) [µM] | TGI (NCI-H460 lung) [µM] | TGI (OVCAR-3 ovarian) [µM] | TGI (RXF 393 renal) [µM] | TGI (SF-295 CNS) [µM] | TGI (SK-OV-3 ovarian) [µM] | TGI (UACC-257 melanoma) [µM]
1 | COC(=O)/N=[N+](\[O-])C(c1ccc(OC)cc1)C1CCCCC1 (configuration not stated) | 10.8 | 40.7 | 44.8 | 32.2 | 31.6 | 22.6 | 7.98 | 33.2 | 28.3 | 16.4 | 18.2 | 25.3
2 | CCCCOC(=O)C(O)Cc1ccoc1 (configuration not stated) | > 100 | > 100 | > 100 | > 100 | > 100 | > 100 | > 100 | > 100 | > 100 | > 100 | > 100 | 
3 | O=C(CC(C(=O)c1ccoc1)c1ccco1)c1ccco1 (configuration not stated) | > 100 | > 100 | > 100 | > 100 | > 100 | > 100 | > 100 | > 100 | > 100 | > 100 | > 100 | > 100
4 | Cc1cccc2c1NC(=S)[C@@H]1CCCN1C2=O | > 100 | > 100 | > 100 | > 100 | > 100 | > 100 | > 100 | > 100 | > 100 | > 100 | > 100 | > 100
5 | COC(=O)c1c(C)cccc1/C=C1\Cc2cc(C)cc(C)c2C1=O | > 100 | 69.7 | > 100 | > 100 | > 100 | > 100 | > 100 | > 100 | 58.5 | > 100 |  | > 100
6 | CC[C@H]1OC([C@H](O)C/C=C\C#C[Si](C)(C)C)C/C=C\C[C@H]1O[Si](C)(C)C(C)(C)C (some centres not stated) | > 100 | > 100 | > 100 | > 100 | > 100 | > 100 | > 100 | > 100 | > 100 | > 100 | > 100 | 
7 | COc1cccc(NC(=O)CC(=O)N2N=C(C)C(N=Nc3ccc(S(=O)(=O)c4ccc(N=NC5C(=O)N(C(=O)CC(=O)Nc6cccc(OC)c6)N=C5C)cc4)cc3)C2=O)c1 (configuration not stated) | > 100 | > 100 | > 100 | > 100 | > 100 | > 100 | > 100 | > 100 | > 100 | > 100 | > 100 | > 100
8 | CC1(C)Oc2ccc3c(=O)cc(-c4ccc(F)cc4)oc3c2C1C(=O)O (configuration not stated) | > 100 | > 100 | > 100 | > 100 | > 100 | > 100 |  | > 100 | > 100 | > 100 | > 100 | > 100
9 | CSc1ccc(/C=C2\N=C(c3ccccc3)N(c3nc4ccc(Sc5ccccc5)cc4[nH]3)C2=O)cc1 | 70.7 | 58.1 | 66.4 | 55.5 | 80.9 | > 94.5 | 61.3 | 35.9 | 56.9 | 50.5 | 60.8 | 55.6
10 | CN(CCc1ccc(N)cc1)[C@H]1CCCC[C@H]1N1CCCC1 | > 100 | > 100 | > 100 | > 100 | > 100 | > 100 | > 100 | > 100 | > 100 | > 100 | > 100 | > 100
11 | O=C(N/N=C\c1ccc2ccccc2c1)Nc1ccc([N+](=O)[O-])cc1 | > 65 | > 100 | > 100 | > 100 | 97.7 | > 72.3 | > 65.1 | 55.4 | > 79.2 | > 68.9 | > 59.8 | > 75
12 | C1=C\CCCCN2C[C@H]3CCCC/C=C\CCCCN4CC[C@@H]([C@H](CCCCCC/1)C4)[C@H](C3)C2 | 17.2 | 4.34 |  | 3.01 | 4.79 | 18.9 | 3.68 | 3.48 | 2.99 | 3.53 | 22.8 | 3.28
13 | Cc1ccc(Nc2cc(=O)[nH]c(=S)[nH]2)cc1 | > 100 | > 100 | > 100 | > 100 | > 100 | > 100 | > 100 | > 100 | > 100 | > 100 | > 100 | > 100
14 | CC[C@@H](/C=C\CCC1(C[C@H](O)CCC=C(C)C)OCCO1)O[Si](C(C)C)(C(C)C)C(C)C | > 100 | 80.5 | 60 | 31.2 | 45.4 | 61.8 | 53.3 | 37.1 | 33.8 | 43.1 | 41.8 | 65.2
15 | C=CC[C@H]1[C@H](O[Si](C)(C)C(C)(C)C)C=CC(=O)[C@@H]1CC(=O)N(Cc1ccccc1)Cc1ccccc1 | > 100 | > 100 | > 100 | 41.2 | > 100 | 30.5 | > 100 | 67 | 27.4 | > 100 | > 100 | 65.8
16 | Nc1nc(Cl)cc(Nc2cc(Cl)cc(Cl)c2)n1 | 47.3 | 41.1 | 81.3 | 36.3 | 47.6 | 48.6 | 32.1 | 48.6 | 38.3 | 38.4 | 35.8 | 32.8
17 | CN(C)c1ccc(/C=C/C=C(/C#N)c2ccccc2)cc1 | > 100 | 69.2 | > 38 | > 93.8 | > 55.7 | 97.6 | 83.7 | 28.5 | > 79.5 | > 100 | > 74.9 | > 100
18 | O=C1CCCCc2cccc(O)c21 | > 100 | > 100 | > 100 | > 100 | > 100 | > 100 | > 100 | > 100 | > 100 | > 100 | > 100 | > 100
19 | O=[N+]([O-])c1cccnc1NCC1(CO)CC(Cc2ccccc2)C1 (configuration not stated) | > 100 | > 100 | > 100 | > 100 | > 100 | > 100 | > 100 | > 100 | > 100 | > 100 | > 100 | > 100
20 | CC1(C)CC(=O)c2c(nc3ccc4ccccc4c3c2-c2ccc(NC(=O)CCC(=O)Nc3ccc(-c4c5c(nc6ccc7ccccc7c46)CC(C)(C)CC5=O)cc3)cc2)C1 | > 100 | > 100 | > 100 | > 100 | > 100 |  | > 100 | > 100 | > 100 | > 100 | > 100 | > 100
21 | COC(=O)c1c(C)cccc1CC1Cc2c(C)cccc2C1=O (configuration not stated) | > 100 | > 100 | > 100 | > 100 | 79.1 | 99.5 | > 100 | > 100 | > 100 | > 100 | > 100 | 72.9
22 | O[C@@H]1C[C@@H]2N[C@@](O)(C[C@@H]2O)[C@H]1O | > 100 | > 100 | > 100 | > 100 | > 100 | > 100 | > 100 | > 100 | > 100 | > 100 | > 100 | > 100
23 | COCCOCCOC1=C(Cl)C(=O)c2c(O)ccc(O)c2C1=O | 22.4 | 7.9 |  | 4.12 | 2.37 | 6.03 | 29.8 | 3.19 | 2.99 | 27.1 | 33.3 | 4.04
24 | Cc1nnc2n1-c1ccccc1C(=S)N1CSCC21 (configuration not stated) | > 100 | > 100 | > 100 | > 100 | > 100 |  | > 100 | > 100 | > 100 | > 100 | > 100 | > 100
25 | C=CC[C@H](C)CCC(=O)N1[C@H]2CC3CC[C@@]2(CS1(=O)=O)C3(C)C | > 100 | > 100 |  | > 100 | 68.1 | > 100 | > 100 |  | > 100 | > 100 | > 100 | > 100
26 | Cc1nc2c(sc3nc4ccccc4n32)c(=O)[nH]1 | > 100 | > 100 |  | > 100 | > 100 | > 100 |  | > 100 | > 100 | > 100 | > 100 | > 100
27 | C#C[C@]1(O)CC[C@H]2[C@@H]3CCc4cc(OC(=O)c5cccc6cc7ccccc7nc56)ccc4[C@H]3CC[C@@]21C | 78.9 | > 100 | > 100 | 71.9 | > 100 | > 100 | > 100 | 63 | > 100 |  | > 100 | > 100
28 | c1ccc(-c2nn(-c3ccccc3)[n+](-c3ccccc3)n2)cc1 | > 100 | > 100 | > 100 | > 100 | > 100 | 28.3 | > 100 |  | 80.6 | > 100 | > 100 | 11.7
